{"source": "paper PMC10714400", "about": "“Antimicrobial Peptide–Peptoid Hybrids with and without Membrane Disruption” (ACS Infectious Diseases, 2023)", "key": {"[1]": {"tested_on": "S. maltophilia", "conditions": "Table S3; […] MH at pH 8.5", "experimental": "(§1) Antimicrobial activity was assayed for all the peptide–peptoids against P. aeruginosa PAO1, K. pneumoniae NCTC418, E. coli W3110, A. baumannii ATCC 19606, methicillin-resistant S. aureus COL (MRSA), and for selected peptides on P. aeruginosa PA14 and the polymyxin-B-resistant derivatives PA14 4.13, PA14 4.18, PA14 2P4, as well as the clinical isolates ZEM-1A and ZEM9A, K. pneumoniae OXA-48, S. aureus Newman, Enterobacter cloacae, Stenotrophomonas maltophilia, Burkholderia cenocepacia, and Staphylococus epidermidis. To determine the Minimal Inhibitory Concentration (MIC), the Broth Microdilution method was used.[72] A colony of bacteria was picked and grown in LB medium overnight at 37 °C.\n(§2) To each well was finally added 4 μL of the diluted bacterial suspension (see above), corresponding to approximately 5 × 10^5 CFU. For each test, two columns of the plate were kept for sterility control (medium only), growth control (medium with bacterial inoculum, no compound). The positive control, Polymyxin B (starting with a concentration of 16 μg/mL) in MH medium with bacterial inocula, was introduced in the two lines of the plate. […] Next, 15 μL of 3-(4,5-dimethylthiazol-2-yl)-2,5-diphenyltetrazolium bromide (MTT)[73] (1 mg/mL in sterilized MilliQ deionized water) were added to each well, and the plates were incubated for 20–30 min at room temperature. The minimal inhibitory concentration (MIC) was defined as the lowest concentration of the compound that inhibits the visible growth of the tested bacteria (yellow) with the unaided eye."}, "[2]": {"tested_on": "S. epidermis", "conditions": "Table S3; […] MH at pH 8.5", "experimental": "as §1, §2"}, "[3]": {"tested_on": "B. cenocepacia", "conditions": "4 h, pH 8.5", "experimental": "as §1, §2"}, "[4]": {"tested_on": "P. aeruginosa PA14", "conditions": "Table S3; […] MH at pH 8.5, 16-20 hours at 37 °C", "experimental": "as §1, §2"}, "[5]": {"tested_on": "S. aureus Newman", "conditions": "Table S3; […] MH at pH 8.5", "experimental": "as §1, §2"}, "[6]": {"test": "Circular dichroism, α-helical content", "type": "physicochemical", "conditions": "0.1 mg/mL; for CD %α with 5 mM DPC: 10 mM phosphate buffer pH 7.4, 5 mM DPC; for CD %α with 20% TFE: 10 mM phosphate buffer pH 7.4, 20% TFE"}, "[7]": {"tested_on": "P. aeruginosa PAO1", "test": "Bacterial count after treatment, before TEM sample preparation", "type": "cell-based, Pseudomonas aeruginosa", "conditions": "P. aeruginosa PAO1, […] MH pH 8.5, 10x MIC", "experimental": "(§3) Just before the samples were further prepared for the microscopy, surviving bacteria were quantified by plating 10-fold dilutions of samples in sterilized normal saline (NaCl 0.9%) on LB agar plates. […] The assay was performed in triplicate. Each bacteria sample was centrifuged at 12,000 rpm for 3 min, and the supernatant was discarded. The samples were then further processed and imaged using our previously described protocol.[64]\n8. Transmission electron microscopy (TEM)\nTable S4: Bacterial counts, 2 hours after treatment, before TEM sample preparation. Data represents triplicates.\nBacteria count after treatment at 10x MIC and 2 h of incubation at 37 °C\nControl (non-treated cells) 1 × 10^8 CFU (100)"}, "[8]": {"tested_on": "K. pneumoniae NCTC418", "experimental": "as §1\n(§4) To each well was finally added 4 μL of the diluted bacterial suspension (see above), corresponding to approximately 5 × 10^5 CFU. For each test, two columns of the plate were kept for sterility control (medium only), growth control (medium with bacterial inoculum, no compound). The positive control, Polymyxin B (starting with a concentration of 16 μg/mL) in MH medium with bacterial inocula, was introduced in the two lines of the plate. The plates were incubated at 37 °C for ca. 18 h under static conditions. Next, 15 μL of 3-(4,5-dimethylthiazol-2-yl)-2,5-diphenyltetrazolium bromide (MTT)[73] (1 mg/mL in sterilized MilliQ deionized water) were added to each well, and the plates were incubated for 20–30 min at room temperature. The minimal inhibitory concentration (MIC) was defined as the lowest concentration of the compound that inhibits the visible growth of the tested bacteria (yellow) with the unaided eye."}, "[9]": {"tested_on": "PA14 2P4 (pmrB)", "conditions": "diluted MH ([…] MH) at pH 8.5 (Table 2 footnote b)", "experimental": "as §1, §4"}, "[10]": {"tested_on": "E. coli W3110", "experimental": "as §1, §4"}, "[11]": {"tested_on": "S. aureus COL (MRSA)", "conditions": "Table S2", "experimental": "as §1, §4"}, "[12]": {"tested_on": "PA14 4.13 (phoQ)", "conditions": "diluted MH ([…] MH) at pH 8.5 (Table 2 footnote b)", "experimental": "as §1, §4"}, "[13]": {"tested_on": "PA14 4.18 (pmrB)", "conditions": "diluted MH ([…] MH) at pH 8.5 (Table 2 footnote b)", "experimental": "as §1, §4"}, "[14]": {"tested_on": "K. pneumoniae OXA-48", "conditions": "Table S3; […] MH at pH 8.5", "experimental": "as §1, §4"}, "[15]": {"tested_on": "ZEM-1A (clinical MDR P. aeruginosa isolate)", "conditions": "Table S3; […] MH at pH 8.5", "experimental": "as §1, §4"}, "[16]": {"tested_on": "E. cloacae", "conditions": "Table S3; […] MH at pH 8.5", "experimental": "as §1, §4"}, "[17]": {"tested_on": "A. baumannii ATCC19606", "experimental": "as §1, §4"}, "[18]": {"tested_on": "P. aeruginosa PAO1", "experimental": "as §1, §4"}, "[19]": {"tested_on": "ZEM9A (clinical MDR P. aeruginosa isolate)", "conditions": "Table S3; […] MH at pH 8.5", "experimental": "as §1, §4"}, "[20]": {"tested_on": "P. aeruginosa PAO1", "test": "Transmission electron microscopy (TEM)", "type": "cell-based, Pseudomonas aeruginosa", "conditions": "P. aeruginosa PAO1, 10 × MIC, […] MH at pH 8.5, 2 h at 37 °C", "experimental": "Scale bars are 500 nm and 1 μm. Red arrows: membrane perturbations. Blue arrows: intracellular aggregation. Yellow arrows: empty area within the cell.\nas §3"}}, "data": [{"substance": "H-VDKPPYLPRPRPPRRIYNR-NH2 [Onc, reference compound]", "values": [{"measurement": "MIC S. maltophilia", "setting": "[1]", "result": "> 32", "unit": "µg/mL"}, {"measurement": "MIC S. epidermis", "setting": "[2]", "result": 4, "unit": "µg/mL"}, {"measurement": "MIC B. cenocepacia", "setting": "[3]", "result": 32, "unit": "µg/mL"}, {"measurement": "MIC P. aeruginosa PA14", "setting": "[4]", "result": 2, "unit": "µg/mL"}, {"measurement": "MIC S. aureus Newman", "setting": "[5]", "result": 1, "unit": "µg/mL"}, {"measurement": "CD %α with 5 mM DPC", "setting": "[6]; DichroWeb, Contin-LL", "result": 20, "unit": "%"}, {"measurement": "CD %α with 20% TFE", "setting": "[6]; DichroWeb, Contin-LL", "result": 23, "unit": "%"}, {"measurement": "CD %α with 5 mM DPC", "setting": "[6]; Table S2", "result": 20, "unit": "%"}, {"measurement": "CD %α with 20% TFE", "setting": "[6]; Table S2", "result": 23, "unit": "%"}, {"measurement": "Bacteria count after treatment at 10x MIC and 2 h of incubation at 37 °C (% of control)", "setting": "[7]", "result": "0.01 % of control"}, {"measurement": "MIC K. pneumoniae NCTC418 […] 7.4", "setting": "[8]; Table S2, […] MH, pH 7.4", "result": 1, "unit": "µg/mL"}, {"measurement": "MIC K. pneumoniae NCTC418 […] 8.5", "setting": "[8]; Table S2, […] MH, pH 8.5", "result": 1, "unit": "µg/mL"}, {"measurement": "MIC K. pneumoniae NCTC418 Full MH 7.4", "setting": "[8]; Table S2, full MH, pH 7.4", "result": 4, "unit": "µg/mL"}, {"measurement": "MIC K. pneumoniae NCTC418 Full MH 8.5", "setting": "[8]; Table S2, full MH, pH 8.5", "result": 4, "unit": "µg/mL"}, {"measurement": "Activity increase in dilute medium", "setting": "[8]; […] MH vs full MH, K. pneumoniae", "result": 4, "unit": "fold"}, {"measurement": "MIC PA14 2P4 (pmrB)", "setting": "[9]", "result": 2, "unit": "µg/mL"}, {"measurement": "Antibacterial activity as a function of NaCl concentration", "setting": "[10]; E. coli W3110, […] MH at pH 8.5, up to 300 mM NaCl", "result": "strongly reduced"}, {"measurement": "MIC E. coli W3110 […] 7.4", "setting": "[10]; Table S2, […] MH, pH 7.4", "result": 1, "unit": "µg/mL"}, {"measurement": "MIC E. coli W3110 […] 8.5", "setting": "[10]; Table S2, […] MH, pH 8.5", "result": 1, "unit": "µg/mL"}, {"measurement": "MIC E. coli W3110 Full MH 7.4", "setting": "[10]; Table S2, full MH, pH 7.4", "result": 4, "unit": "µg/mL"}, {"measurement": "MIC E. coli W3110 Full MH 8.5", "setting": "[10]; Table S2, full MH, pH 8.5", "result": 1, "unit": "µg/mL"}, {"measurement": "Activity increase in dilute medium", "setting": "[10]; […] MH vs full MH, E. coli", "result": 4, "unit": "fold"}, {"measurement": "MIC S. aureus COL (MRSA) […] 7.4", "setting": "[11]; […] MH, pH 7.4", "result": 32, "unit": "µg/mL"}, {"measurement": "MIC S. aureus COL (MRSA) Full MH 7.4", "setting": "[11]; full MH, pH 7.4", "result": "> 32", "unit": "µg/mL"}, {"measurement": "MIC S. aureus COL (MRSA) Full MH 8.5", "setting": "[11]; full MH, pH 8.5", "result": "> 32", "unit": "µg/mL"}, {"measurement": "MIC PA14 4.13 (phoQ)", "setting": "[12]", "result": 2, "unit": "µg/mL"}, {"measurement": "MIC PA14 4.18 (pmrB)", "setting": "[13]", "result": 2, "unit": "µg/mL"}, {"measurement": "MIC K. pneumoniae OXA-48", "setting": "[14]", "result": 1, "unit": "µg/mL"}, {"measurement": "MIC P. aeruginosa ZEM-1A", "setting": "[15]", "result": 2, "unit": "µg/mL"}, {"measurement": "MIC E. cloacae", "setting": "[16]", "result": 2, "unit": "µg/mL"}, {"measurement": "MIC A. baumannii ATCC19606 Full MH 8.5", "setting": "[17]; ATCC19606, 4 h, pH 8.5", "result": 8, "unit": "µg/mL"}, {"measurement": "MIC A. baumannii ATCC19606 […] 7.4", "setting": "[17]; Table S2, […] MH, pH 7.4", "result": 4, "unit": "µg/mL"}, {"measurement": "MIC A. baumannii ATCC19606 […] 8.5", "setting": "[17]; Table S2, […] MH, pH 8.5", "result": 4, "unit": "µg/mL"}, {"measurement": "MIC A. baumannii ATCC19606 Full MH 7.4", "setting": "[17]; Table S2, full MH, pH 7.4", "result": 32, "unit": "µg/mL"}, {"measurement": "Activity increase in dilute medium", "setting": "[17]; […] MH vs full MH, A. baumannii", "result": 4, "unit": "fold"}, {"measurement": "Antibacterial activity as a function of NaCl concentration", "setting": "[18]; P. aeruginosa PAO1, […] MH at pH 8.5, up to 300 mM NaCl", "result": "strongly reduced"}, {"measurement": "MIC P. aeruginosa PAO1 […] 7.4", "setting": "[18]; Table S2, […] MH, pH 7.4", "result": 32, "unit": "µg/mL"}, {"measurement": "MIC P. aeruginosa PAO1 Full MH 7.4", "setting": "[18]; Table S2, full MH, pH 7.4", "result": "> 32", "unit": "µg/mL"}, {"measurement": "MIC P. aeruginosa PAO1 Full MH 8.5", "setting": "[18]; Table S2, full MH, pH 8.5", "result": "> 32", "unit": "µg/mL"}, {"measurement": "MIC P. aeruginosa ZEM9A", "setting": "[19]", "result": 16, "unit": "µg/mL"}, {"measurement": "TEM micrographs, changes in treated bacteria", "setting": "[20]", "result": "aggregation of intracellular components"}]}]}
